From the supplement of paper PMC12532568
Counter-ions that a name gives are not always drawn.

Tested on: Danio rerio larvae Tg(actc1b:ZsGreen-LC3), 3 dpf
Experiment: LC3 puncta relative area vs vehicle (mean) (log2 fold change); higher = more autophagy
Settings: treatment time 16 h
Method: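 Transgenic ZsGreen-LC3 zebrafish larvae (2 dpf) were treated for 16 h with natural bioactives at 10, 50, 100 or 250 µM. Skeletal-muscle LC3 puncta area was measured by high-content imaging with or without 4 h of 100 mM NH4Cl, normalised to vehicle, and reported as the mean log2 fold change over 4–21 larvae.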

Row | SMILES | LC3 puncta (log2) (NH4Cl: + NH4Cl, 10 µM) | LC3 puncta (log2) (NH4Cl: + NH4Cl, 50 µM) | LC3 puncta (log2) (NH4Cl: + NH4Cl, 100 µM) | LC3 puncta (log2) (NH4Cl: + NH4Cl, 250 µM) | LC3 puncta (log2) (NH4Cl: - NH4Cl, 10 µM) | LC3 puncta (log2) (NH4Cl: - NH4Cl, 50 µM) | LC3 puncta (log2) (NH4Cl: - NH4Cl, 100 µM) | LC3 puncta (log2) (NH4Cl: - NH4Cl, 250 µM)
1 | CC(=O)OC/C=C(C)/C=C/C=C(C)/C=C/C1=C(C)CCCC1(C)C [Retinol acetate] | 0.716 | 0.504 | 0.948 | 1.18 | 0.543 | 0.167 | 0.303 | 1.12
2 | CC(=O)C(C)=O [Biacetyl] | 0.347 | 0.581 | 0.946 | 0.981 | 0.0128 | 0.343 | 0.699 | 0.218
3 | N[C@H]1C(O)O[C@H](CO)[C@@H](O)[C@@H]1O (stereo partly drawn) [D-glucosamine] | 0.082 | 0.412 | 0.454 | 0.285 | 0.0603 | 0.0831 | 0.218 | 0.352
4 | CCC(O)CC(=O)O (stereo not given) [b-Hydroxyvalerate] | 0.933 | 0.6 | 1.08 | 1.21 | 0.353 | 0.272 | 0.404 | 0.37
5 | CCCCC(=O)[O-].[Na+] [Valeric acid sodium salt] | -0.472 | -0.35 | -0.0575 | -0.14 | -0.132 | 0.109 | -0.272 | -0.191
6 | C[C@@H]1O[C@@H](OC[C@H]2O[C@@H](Oc3c(-c4ccc(O)c(O)c4)oc4cc(O)cc(O)c4c3=O)[C@H](O)[C@@H](O)[C@@H]2O)[C@H](O)[C@H](O)[C@H]1O [Rutin hydrate] | 0.351 | 0.0277 | 0.401 | 0.491 | -0.169 | -0.116 | 0.291 | 0.18
7 | CCCCCCCCCCCCCCCC(=O)O [Palmitic acid] | 0.572 | 0.0741 | 0.0454 | 0.114 | 0.561 | -0.136 | -0.712 | -0.593
8 | O=C(O[C@@H]1Cc2c(O)cc(O)cc2O[C@@H]1c1ccc(O)c(O)c1)c1cc(O)c(O)c(O)c1 [(-)-Epicatechin gallate] | 0.221 | 0.493 | 0.661 | – | -0.0294 | 0.253 | 0.0524 | –
9 | CC(O)CC(=O)O (stereo not given) [Sodium 3-hydroxybutyrate] | 0.123 | 0.569 | 0.8 | 0.884 | 0.0599 | 0.278 | 0.0997 | 0.295
10 | CCCC(=O)[O-].[Na+] [Butyric acid sodium salt] | 0.256 | 0.65 | 0.615 | 0.513 | 0.036 | 0.362 | 0.26 | -0.0615
11 | CCCCCCCC(=O)[O-].[Na+] [Sodium octanoate] | 0.613 | 0.427 | 0.342 | 0.503 | -0.0249 | 0.344 | 0.217 | 0.272
12 | O=c1oc2cc(O)ccc2c2ccccc12 [Urolithin B] | 0.159 | 1.38 | 1.04 | – | 0.474 | 0.688 | 0.767 | –
13 | O=C(O)CC(O)C(=O)O (stereo not given) [Malic acid] | 0.364 | 0.607 | 0.449 | 0.554 | -0.0981 | -0.0981 | -0.0374 | -0.0364
14 | CCCCCCCCCCCCCCCCCC(=O)O [stearic acid] | 0.718 | 0.677 | 0.635 | 1.13 | 0.39 | 0.392 | 0.127 | 0.245
15 | CC(O)C(=O)O (stereo not given) [Lactic acid] | 0.558 | 0.374 | 0.472 | 0.345 | 0.287 | -0.151 | -0.219 | 0.079
16 | NC(=O)c1ccc[n+]([C@@H]2O[C@H](COP(=O)([O-])O)[C@@H](O)[C@H]2O)c1 [Nicotinamide mononucleotide] | 1.01 | 0.775 | 0.349 | 0.19 | -0.0834 | -0.119 | -0.518 | -0.271
17 | CCCCCC=CCC=CCCCCCCCC(=O)O [Linoaleic acid] | 0.722 | 1.36 | 1.01 | – | 0.542 | 0.956 | 0.433 | –
18 | C[C@@H](O)CC(=O)O [(R)-3-Hydroxybutyric acid] | 0.877 | 0.689 | 0.929 | 1.01 | 0.111 | -0.78 | 0.265 | 0.324
19 | CCOC(=O)CC(O)(CC(=O)OCC)C(=O)OCC [Triethyl citrate] | 0.559 | 0.524 | 1.06 | 1.44 | 0.227 | 0.572 | 0.551 | 0.957
20 | Cc1ccc(C(C)C)cc1O [Carvacrol] | 0.565 | 1.07 | 1.84 | 1.67 | 0.493 | 0.93 | 1.08 | 1.92
21 | CC(O)CC(=O)O (racemic) [DL-ß-Hydroxybutyric acid sodium salt] | -0.181 | 0.231 | 0.389 | 0.588 | 0.151 | -0.288 | 0.0785 | 0.0274
22 | C/C1=C2N=C(/C=C3N=C(/C(C)=C4\[N-]C(C(CC(N)=O)C4(C)CCC(=O)NCC(C)OP(=O)([O-])OC4C(CO)OC(n5cnc6cc(C)c(C)cc65)C4O)C4(C)N=C1C(CCC(N)=O)C4(C)CC(N)=O)C(CCC(N)=O)C\3(C)C)C(CCC(N)=O)C/2(C)CC(N)=O.[CH3-].[Co+3] (stereo not given) [Methylcobalamin] | 0.507 | 0.557 | 0.386 | -0.454 | -0.125 | -0.236 | 0.239 | -0.503
23 | CC(C)CC(O)C(=O)O (stereo not given) [2-Hydroxyisocaproic acid] | 0.569 | 1.04 | 1.46 | 1.21 | -0.489 | 0.415 | 0.346 | 0.416
24 | CCCCCCCC(=O)O [Octanoic acid] | 0.0521 | 0.079 | 0.553 | – | -0.257 | 0.356 | 0.0532 | –
25 | OCC(O)CO [Glycerol] | 0.468 | -0.233 | 0.425 | 0.628 | 0.0358 | -0.0173 | 0.118 | 0.027
26 | O=c1oc2c(O)c(O)cc3c(=O)oc4c(O)c(O)cc1c4c23 [Ellagic acid] | 0.705 | 0.347 | 0.0739 | 0.0325 | 0.154 | -0.476 | -0.223 | 0.00958
